Experimental data taken from PubChem BioAssay (NCI).
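All cell lines were grown in 96-well plates and treated with compound for 48 hours. TGI denotes the concentration required for complete inhibition of growth.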

How the values were obtained:
Experiment in all cases: growth of human tumour cells (NCI), 48 h
[1] = test system: CAKI-1 renal
[2] = test system: SF-268 CNS
[3] = test system: HOP-92 NSCLC
[4] = test system: SK-OV-3 ovarian
[5] = test system: SR leukemia
[6] = test system: IGROV1 ovarian
[7] = test system: K-562 leukemia
[8] = test system: RPMI-8226 leukemia
[9] = test system: HOP-62 NSCLC
[10] = test system: HCT-15 colon
[11] = test system: NCI-H23 lung
[12] = test system: U251 CNS
[13] = test system: EKVX NSCLC
[14] = test system: SF-539 CNS
[15] = test system: MDA-MB-231 breast
[16] = test system: ACHN renal
[17] = test system: NCI-H226 lung
[18] = test system: MALME-3M melanoma
[19] = test system: COLO 205 colon
[20] = test system: MDA-MB-435
[21] = test system: MCF7 breast
[22] = test system: MDA-N
[23] = test system: 786-0 renal
[24] = test system: LOX IMVI melanoma
[25] = test system: HT29 colon
[26] = test system: OVCAR-3 ovarian
[27] = test system: M14 melanoma
[28] = test system: SK-MEL-5 melanoma
[29] = test system: HL-60(TB) leukemia
[30] = test system: PC-3 prostate
[31] = test system: BT-549 breast
[32] = test system: SK-MEL-2 melanoma
[33] = test system: RXF 393 renal
[34] = test system: A549 NSCLC
[35] = test system: T-47D breast
[36] = test system: SN12C renal
[37] = test system: UACC-257 melanoma
[38] = test system: HCT-116 colon
[39] = test system: SF-295 CNS
[40] = test system: OVCAR-4 ovarian
[41] = test system: A498 renal
[42] = test system: SNB-19 CNS
[43] = test system: SW-620 colon
[44] = test system: NCI/ADR-RES ovarian
[45] = test system: UO-31 renal
[46] = test system: OVCAR-8 ovarian
[47] = test system: UACC-62 melanoma
[48] = test system: KM12 colon
[49] = test system: DU-145 prostate
[50] = test system: CCRF-CEM leukemia
[51] = test system: NCI-H522 lung
[52] = test system: HCC-2998 colon
[53] = test system: SK-MEL-28 melanoma
[54] = test system: OVCAR-5 ovarian
[55] = test system: MOLT-4 leukemia
[56] = test system: TK-10 renal
[57] = test system: HS 578T breast

Which TGI [1] does the source give for `CCOC(=O)c1sc2nc(SC)nc(Nc3ccc4c(c3)OCCCO4)c2c1N` here?
Its TGI is greater than 100 µM.

And the TGI [2]?
The TGI was greater than 100 µM.

And the TGI [3]?
Its TGI is greater than 100 µM.

And the TGI [4]?
The TGI was greater than 100 µM.

What about the TGI [5] of the same molecule?
Its TGI is greater than 100 µM.

And the TGI [6]?
The TGI was greater than 100 µM.

And the TGI [7]?
The TGI was greater than 100 µM.

What about the TGI [8] of the same molecule?
The TGI was greater than 100 µM.

And the TGI [9]?
Its TGI is 61.5 µM.

And the TGI [10]?
Its TGI is greater than 100 µM.

And the TGI [11]?
Its TGI is greater than 100 µM.

What about the TGI [12] of the same molecule?
The TGI was greater than 100 µM.

What about the TGI [13] of the same molecule?
Its TGI is greater than 100 µM.

What about the TGI [14] of the same molecule?
Its TGI is greater than 100 µM.

What about the TGI [15] of the same molecule?
Its TGI is greater than 100 µM.

What about the TGI [16] of the same molecule?
Its TGI is greater than 100 µM.

And the TGI [17]?
Its TGI is greater than 100 µM.

What about the TGI [18] of the same molecule?
The TGI was 80.7 µM.

What about the TGI [19] of the same molecule?
The TGI was greater than 100 µM.

And the TGI [20]?
Its TGI is greater than 100 µM.

And the TGI [21]?
The TGI was greater than 100 µM.

What about the TGI [22] of the same molecule?
The TGI was greater than 100 µM.

What about the TGI [23] of the same molecule?
Its TGI is greater than 100 µM.

What about the TGI [24] of the same molecule?
Its TGI is greater than 100 µM.

And the TGI [25]?
The TGI was greater than 100 µM.

What about the TGI [26] of the same molecule?
Its TGI is 75.9 µM.

And the TGI [27]?
The TGI was greater than 100 µM.

And the TGI [28]?
The TGI was 18.7 µM.

And the TGI [29]?
The TGI was greater than 100 µM.

What about the TGI [30] of the same molecule?
Its TGI is greater than 100 µM.

And the TGI [31]?
The TGI was greater than 100 µM.

And the TGI [32]?
Its TGI is greater than 100 µM.

What about the TGI [33] of the same molecule?
Its TGI is 41.7 µM.

And the TGI [34]?
The TGI was greater than 100 µM.

And the TGI [35]?
Its TGI is greater than 100 µM.

What about the TGI [36] of the same molecule?
The TGI was greater than 100 µM.

And the TGI [37]?
Its TGI is greater than 100 µM.

And the TGI [38]?
The TGI was greater than 100 µM.

And the TGI [39]?
The TGI was 53.9 µM.

And the TGI [40]?
Its TGI is greater than 100 µM.

What about the TGI [41] of the same molecule?
The TGI was greater than 100 µM.

What about the TGI [42] of the same molecule?
Its TGI is greater than 100 µM.

And the TGI [43]?
The TGI was greater than 100 µM.

And the TGI [44]?
Its TGI is greater than 100 µM.

And the TGI [45]?
The TGI was greater than 100 µM.

What about the TGI [46] of the same molecule?
Its TGI is greater than 100 µM.

And the TGI [47]?
The TGI was greater than 100 µM.

What about the TGI [48] of the same molecule?
The TGI was greater than 100 µM.

What about the TGI [49] of the same molecule?
The TGI was greater than 100 µM.

And the TGI [50]?
Its TGI is greater than 100 µM.

And the TGI [51]?
Its TGI is 37.2 µM.

And the TGI [52]?
Its TGI is greater than 100 µM.

What about the TGI [53] of the same molecule?
The TGI was greater than 100 µM.

And the TGI [54]?
The TGI was greater than 100 µM.

What about the TGI [55] of the same molecule?
Its TGI is 8.25 µM.

What about the TGI [56] of the same molecule?
The TGI was greater than 100 µM.

How did the TGI [1] turn out when `COc1ccc(-c2oc3c(CC(=O)O)cccc3c(=O)c2OC)cc1` was run?
The TGI was 42.6 µM.

And the TGI [2]?
Its TGI is greater than 100 µM.

And the TGI [4]?
The TGI was greater than 100 µM.

What about the TGI [5] of the same molecule?
The TGI was greater than 100 µM.

And the TGI [6]?
The TGI was greater than 100 µM.

What about the TGI [7] of the same molecule?
Its TGI is greater than 100 µM.

And the TGI [9]?
The TGI was greater than 100 µM.

And the TGI [11]?
Its TGI is greater than 100 µM.

What about the TGI [12] of the same molecule?
The TGI was greater than 100 µM.

What about the TGI [13] of the same molecule?
The TGI was greater than 100 µM.

And the TGI [14]?
Its TGI is greater than 100 µM.

What about the TGI [15] of the same molecule?
Its TGI is greater than 100 µM.

What about the TGI [16] of the same molecule?
Its TGI is greater than 100 µM.

And the TGI [17]?
The TGI was greater than 100 µM.

What about the TGI [18] of the same molecule?
Its TGI is greater than 100 µM.

And the TGI [19]?
The TGI was greater than 100 µM.

And the TGI [20]?
The TGI was greater than 100 µM.

What about the TGI [21] of the same molecule?
Its TGI is greater than 100 µM.

And the TGI [22]?
Its TGI is greater than 100 µM.

What about the TGI [23] of the same molecule?
Its TGI is greater than 100 µM.

And the TGI [25]?
The TGI was greater than 100 µM.

And the TGI [26]?
Its TGI is greater than 100 µM.

And the TGI [27]?
The TGI was greater than 100 µM.

And the TGI [28]?
Its TGI is greater than 100 µM.

And the TGI [29]?
The TGI was greater than 100 µM.

And the TGI [30]?
Its TGI is greater than 100 µM.

And the TGI [31]?
Its TGI is greater than 100 µM.

What about the TGI [32] of the same molecule?
Its TGI is greater than 100 µM.

What about the TGI [33] of the same molecule?
Its TGI is greater than 100 µM.

And the TGI [34]?
Its TGI is greater than 100 µM.

And the TGI [35]?
Its TGI is greater than 100 µM.

And the TGI [36]?
The TGI was greater than 100 µM.

What about the TGI [37] of the same molecule?
Its TGI is greater than 100 µM.

And the TGI [38]?
Its TGI is greater than 100 µM.

What about the TGI [39] of the same molecule?
Its TGI is greater than 100 µM.

What about the TGI [41] of the same molecule?
Its TGI is greater than 100 µM.

What about the TGI [44] of the same molecule?
Its TGI is greater than 100 µM.

And the TGI [45]?
The TGI was 53.4 µM.

What about the TGI [46] of the same molecule?
The TGI was greater than 100 µM.

What about the TGI [57] of the same molecule?
The TGI was greater than 100 µM.

And the TGI [47]?
The TGI was greater than 100 µM.

And the TGI [49]?
The TGI was greater than 100 µM.

What about the TGI [50] of the same molecule?
Its TGI is greater than 100 µM.

What about the TGI [51] of the same molecule?
Its TGI is greater than 100 µM.

And the TGI [52]?
The TGI was greater than 100 µM.

What about the TGI [54] of the same molecule?
Its TGI is greater than 100 µM.

What about the TGI [55] of the same molecule?
The TGI was greater than 100 µM.

And the TGI [56]?
Its TGI is greater than 100 µM.
